Results taken from patent publication US20130165520A1, “Hybrid Molecule Having Mixed Retinoic Acid Receptor Agonism and Histone Deacetylase Inhibitory Properties” (priority 2010, published 2013).
pIC50: −log10 of the molar value.

How the values were obtained:
SK-MEL-28 = SK-MEL-28 (Melanoma); 48 h
[1] = test system: acetylated histone H4 and p53 in MDA-MB-231 cells; test: Western blotting of acetylated histone H4 and p53; settings: 10 μM, 18-24 h time course
Procedure: The potential of 3 to act as an HDACi and cause deacetylation of a synthetic substrate or hyperacetylation of HDACs target proteins was subsequently assessed. […] Intracellular HDACi activity was assessed by measuring levels of acetylated histone H4 and tumor suppressor protein p53 in MDA-MB-231 cells by Western blotting.
Western Blotting: MDA-MB-231 cells were plated in DMEM 5% FBS-T at 600 k cells per well in 6-well plates. […] Laemmli buffer at various time points. Protein concentration of the extracts was analyzed by BioRad DC protein assay. 20 μg of proteins per condition were loaded on an SDS-PA gel and transferred to a nitrocellulose membrane for blotting. Blotting was done using ABCAM primary antibodies EP356 (anti-p53) T3526 (anti-Tubulin) and AB1761 (anti-acH4).

SNB-19 = SNB-19 (CNS); 48 h
U251 [2] = test: cells; settings: Homo sapiens, U-251, 48 h
CCRF-CEM = test: cells; settings: Homo sapiens, 48 h
HCT-116 = HCT-116 (Colon); 48 h
U251 [3] = settings: U251 (CNS); 48 h
SF-268 = SF-268 (CNS); 48 h
COLO205 [4] = settings: COLO205 (Colon); 48 h
MCF7 = test: cells; settings: Homo sapiens, MCF7, 48 h
SkBr3 = test: Cell growth measurement; format: cell-based; settings: 10 days of treatment
Procedure: (§1) Finally, the effects of 3 on the growth of several breast cancer cell lines [MCF-7 (ER-positive, HER2-negative, RA-sensitive); SkBr3 (ER-negative, HER2-amplified, RA-sensitive); and the normally RA-insensitive MDA-MB-231 (ER-negative, HER2-negative, RA-insensitive)] was assessed.
(§2) Cell Growth Measurement: Cells were plated at 40 k cells per well (6-well plate) in DMEM 5% FBS-T for all cell lines except for I-IMEC cells which were plated in supplemented MEBM from Clonetics. Cells were treated every 48 hours and media was refreshed every 96 hours. After 10 days of treatment cells were harvested in 0.1N NaOH and growth was quantified by analyzing protein content of lysates with a Lowry assay.

MCF-7 = test: Cell growth measurement; format: cell-based; settings: 10 days of treatment
Procedure: as §1, §2

MDA-MB-231 = test: Cell growth measurement; format: cell-based; settings: 10 days of treatment
Procedure: as §1, §2

M14 = M14 (Melanoma); 48 h
SNB-75 [5] = test: cells; settings: Homo sapiens, SNB-75, 48 h
DU-145 = test: cells; settings: Homo sapiens, DU-145, 48 h
EKVX = EKVX (Non-Small cell lung cancer); 48 h
HL-60(TB) = HL-60(TB) (Leukemia); 48 h
T-47D = test: cells; settings: Homo sapiens, T47D, 48 h
NCI-H322M = test: cells; settings: Homo sapiens, 48 h
MDA-MB-468 [6] = settings: MDA-MB-468 (Breast); 48 h
NCI-H460 = test: cells; settings: Homo sapiens, NCI-H460, 48 h
NCI-H23 = test: cells; settings: Homo sapiens, NCI-H23, 48 h
NCI/ADR-RES = settings: 48 h
[7] = test system: non-tumorogenic immortalized mammary 184b5 cells; test: Cell growth measurement
[8] = test system: normal human mammary epithelial cells (HMEC); test: Cell growth measurement; format: cell-based
MDA-MB-468 [9] = test: cells; settings: Homo sapiens, MDA-MB-468, 48 h
HCC-2998 = test: cells; settings: Homo sapiens, HCC 2998, 48 h
NCI-H226 = test: cells; settings: Homo sapiens, NCI-H226, 48 h
BT-549 = BT-549 (Breast); 48 h
COLO205 [10] = test: cells; settings: Homo sapiens, COLO 205, 48 h
SK-MEL-5 = SK-MEL-5 (Melanoma); 48 h
SNB-75 [11] = settings: SNB-75 (CNS); 48 h
OVCAR-8 = test: cells; settings: Homo sapiens, OVCAR-8, 48 h

In the case of `CC1(C)CCC(C)(C)c2cc(-c3ccc4cc(C(=O)NO)ccc4c3)ccc21` [hybrid 3], the TGI (SK-MEL-28) was 5500 nM, the “hyperacetylation of histone H4 and p53” value [1] was “clear hyperacetylation” and the TGI (SNB-19) was 2360 nM. For the same compound, the GI50 (U251 [2]) was 437 nM, the CC50 (U251 [2]; read-out: LC50) was 4800 nM and the GI50 (CCRF-CEM) was 306 nM. The CC50 (CCRF-CEM; read-out: LC50) was > 100000 nM, the TGI (HCT-116) was 1500 nM and the TGI (U251 [3]) was 1690 nM. For the same compound, the TGI (SF-268) was 1850 nM, the TGI (COLO205 [4]) was 2330 nM and the GI50 (MCF7) was 470 nM. The CC50 (MCF7; read-out: LC50) was 4660 nM, the “effect on cell growth” value (SkBr3) was “active” and the pIC50 (SkBr3; Homo sapiens, SK-BR-3, 240 h) was 7.05. The “effect on cell growth” value (MCF-7) was “active”, the pIC50 (MCF-7; Homo sapiens, MCF7, 240 h) was 6.82 and the “effect on cell growth” value (MDA-MB-231) was “active”. For the same compound, the pIC50 (MDA-MB-231; Homo sapiens, 240 h) was 6.52, the TGI (M14) was 2490 nM and the GI50 (SNB-75 [5]) was 1740 nM. It also gave a CC50 (SNB-75 [5]; read-out: LC50) of 24900 nM, a GI50 (DU-145) of 622 nM and a CC50 (DU-145; read-out: LC50) of 4680 nM. The TGI (EKVX) was 3430 nM, the TGI (HL-60(TB)) was 1520 nM and the GI50 (T-47D) was 1270 nM. For the same compound, the CC50 (T-47D; read-out: LC50) was 28000 nM, the GI50 (NCI-H322M) was 446 nM and the CC50 (NCI-H322M; read-out: LC50) was 26200 nM. The TGI (MDA-MB-468 [6]) was 2750 nM, the GI50 (NCI-H460) was 340 nM and the CC50 (NCI-H460; read-out: LC50) was 4040 nM. The GI50 (NCI-H23) was 996 nM, the CC50 (NCI-H23; read-out: LC50) was 5900 nM and the TGI (NCI/ADR-RES) was 1760 nM. The “effect on growth of non-tumorogenic cells” value [7] was “only minimal effects”, the “effect on growth of normal cells” value [8] was “only minimal effects” and the GI50 (MDA-MB-468 [9]) was 1180 nM. It also gave a CC50 (MDA-MB-468 [9]; read-out: LC50) of 6390 nM, a GI50 (HCC-2998) of 1090 nM and a CC50 (HCC-2998; read-out: LC50) of 5750 nM. The GI50 (NCI-H226) was 1220 nM, the CC50 (NCI-H226; read-out: LC50) was 18800 nM and the TGI (BT-549) was 4810 nM. It also gave a GI50 (COLO205 [10]) of 797 nM, a CC50 (COLO205 [10]; read-out: LC50) of 6020 nM and a TGI (SK-MEL-5) of 2310 nM. It also gave a TGI (SNB-75 [11]) of 6100 nM, a GI50 (OVCAR-8) of 459 nM and a CC50 (OVCAR-8; read-out: LC50) of 5120 nM.
